Here are results for 15 molecules from paper PMC5271370, “A High-Content Assay Enables the Automated Screening and Identification of Small Molecules with Specific ALDH1A1-Inhibitory Activity” (PLoS ONE, 2017).

pIC50: −log10 of the molar value. Where two headings read alike, the source gives them in different places.

In one assay the target is T1, Human ALDH2 (Homo sapiens, UniProt P05091).
T1 construct: purchased Abcam ab87415
T1 sequence (P05091 18-517): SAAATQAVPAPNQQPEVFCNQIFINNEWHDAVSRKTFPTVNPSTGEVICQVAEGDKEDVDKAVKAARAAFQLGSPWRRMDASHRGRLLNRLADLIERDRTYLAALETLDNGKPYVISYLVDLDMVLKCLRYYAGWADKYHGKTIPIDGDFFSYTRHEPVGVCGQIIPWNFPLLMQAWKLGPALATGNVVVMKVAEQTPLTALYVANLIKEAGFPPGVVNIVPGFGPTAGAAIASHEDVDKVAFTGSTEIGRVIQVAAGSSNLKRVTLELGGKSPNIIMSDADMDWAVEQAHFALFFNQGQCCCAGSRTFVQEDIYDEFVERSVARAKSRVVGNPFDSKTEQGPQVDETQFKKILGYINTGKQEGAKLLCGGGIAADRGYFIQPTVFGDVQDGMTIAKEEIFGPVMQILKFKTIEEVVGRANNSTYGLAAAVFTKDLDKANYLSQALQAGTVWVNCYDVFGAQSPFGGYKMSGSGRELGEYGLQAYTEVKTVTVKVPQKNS
Put plainly: 1,536-well enzymatic assay (NADH fluorescence), ALDH2. Type of assay: biochemical. From the text: (§1) To validate our optimized assay, we assembled a set of 20 previously reported ALDH inhibitors, with varying degrees of target specificity (Table 1 and S4 Fig). […] Briefly, the assay measures the dehydrogenase activity of recombinant human ALDH1A1, ALDH1A2, ALDH1A3, ALDH2 or ALDH3A1 using NAD(P)^+ and either propionaldehyde or benzaldehyde as substrates. An orthogonal resorufin-based assay format was also run with isolated ALDH1A1 to rule out potential false positives due to intrinsic compound fluorescence.
(§2) Human ALDH1A1 and ALDH3A1 were expressed and purified as described elsewhere. Human ALDH2 was purchased from Abcam (ab87415). Human ALDH1A2 and ALDH1A3 were purchased from MyBioSource (MBS1005929; San Diego, CA) and ThermoFisher (11636H07E50), respectively. The inhibitory activity of compounds against ALDHs was measured according to protocols described previously. Briefly, 3 μL of enzyme (final concentrations of 20 nM for ALDH1A1, 50 nM for ALDH1A2, 50 nM for ALDH1A3, 75 nM for ALDH2 and 5 nM for ALDH3A1) in assay buffer (100 mM HEPES pH 7.5 with 0.01% Tween 20) were dispensed into a 1,536-well solid-bottom black plate (Greiner Bio One, Monroe, NC). […] Samples were incubated (room temperature, protected from light) for 15 minutes followed by a 1 μL substrate addition of NAD^+ and Propionaldehyde (final concentrations of 1 mM and 80 μM, respectively) for ALDH1A1, 1A2, 1A3, and ALDH2 or NADP^+ and benzaldehyde (final concentrations of 1 mM and 200 μM, respectively) for ALDH3A1. Plates were centrifuged at 1,000 rpm for 15 seconds, then read in kinetic mode on a ViewLux High-throughput CCD imager (PerkinElmer, Waltham, MA) equipped with standard UV fluorescence optics (340 nm excitation, 450 nm emission) for 5 (ALDH1A1, ALDH1A2, ALDH2, ALDH3A1) or 30 (ALDH1A3) minutes. The change in fluorescence intensity over the 5- or 30-minute reaction period was normalized against no-inhibitor and no-enzyme controls and the resulting percent inhibition data were fitted to a 4-parameter Hill equation. Bay-11 7085 was used as intraplate control. To account for artifacts due to intrinsic compound fluorescence in the above spectrum, compounds were also tested in an orthogonal resorufin assay format with optics of excitation 525 nm/emission 598 nm as described before. The same parameters as the NADH assay were used for the resorufin assay, with the addition of (final) 133 μg/mL diaphorase and 37 μM resazurin to the assay solution. Same controls were used in both formats.

For another assay, the target named is T2, Human ALDH1A2 (Homo sapiens, UniProt O94788).
T2 construct: purchased MyBioSource MBS1005929
T2 sequence (O94788 1-518): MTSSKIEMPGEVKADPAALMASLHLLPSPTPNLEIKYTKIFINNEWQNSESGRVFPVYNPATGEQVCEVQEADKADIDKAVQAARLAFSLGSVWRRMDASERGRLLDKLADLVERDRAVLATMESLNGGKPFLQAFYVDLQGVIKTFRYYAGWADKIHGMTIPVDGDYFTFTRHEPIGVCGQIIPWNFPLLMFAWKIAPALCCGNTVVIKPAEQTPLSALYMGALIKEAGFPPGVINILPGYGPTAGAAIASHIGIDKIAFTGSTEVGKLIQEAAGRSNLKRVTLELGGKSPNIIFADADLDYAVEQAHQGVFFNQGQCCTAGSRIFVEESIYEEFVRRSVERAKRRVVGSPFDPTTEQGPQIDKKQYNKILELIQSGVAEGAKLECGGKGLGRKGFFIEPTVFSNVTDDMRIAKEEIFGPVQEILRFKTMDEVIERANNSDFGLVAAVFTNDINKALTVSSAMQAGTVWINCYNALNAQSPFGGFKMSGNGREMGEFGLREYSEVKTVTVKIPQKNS
Put plainly: 1,536-well enzymatic assay (NADH fluorescence), ALDH1A2. Type of assay: biochemical.
Excerpt: as §1, §2

The next assay concerns the target T3, Human ALDH3A1 (Homo sapiens, UniProt P30838).
T3 construct: made in house
T3 sequence (P30838 1-453): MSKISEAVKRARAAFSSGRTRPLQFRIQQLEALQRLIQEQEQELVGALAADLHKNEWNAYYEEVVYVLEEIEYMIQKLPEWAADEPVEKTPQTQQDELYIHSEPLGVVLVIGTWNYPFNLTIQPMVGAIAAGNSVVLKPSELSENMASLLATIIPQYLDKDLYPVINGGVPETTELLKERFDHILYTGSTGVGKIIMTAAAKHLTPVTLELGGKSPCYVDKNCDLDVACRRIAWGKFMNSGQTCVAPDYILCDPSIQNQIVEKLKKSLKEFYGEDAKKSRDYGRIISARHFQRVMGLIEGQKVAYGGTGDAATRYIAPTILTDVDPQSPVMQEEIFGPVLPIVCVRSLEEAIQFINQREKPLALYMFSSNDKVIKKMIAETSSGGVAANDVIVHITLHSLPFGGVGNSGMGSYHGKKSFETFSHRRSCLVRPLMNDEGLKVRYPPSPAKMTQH
Put plainly: 1,536-well enzymatic assay (NADPH fluorescence), ALDH3A1. Type of assay: biochemical.
Excerpt: as §1, §2

The test system of a further assay is ALDH1A1. As to conditions: reported ALDH target 1A1; read-out: Reported Biochemical IC50, ALDH1A1; cited from earlier work.
Where [1] appears, read: validation set, 75 nM enzyme, NAD+ and propionaldehyde, read-out: Biochemical IC50 ALDH2.
The mark [2] stands for this setting: validation set, 50 nM enzyme, NAD+ and propionaldehyde, read-out: Biochemical IC50 ALDH1A2.
Where [3] appears, read: validation set, 5 nM enzyme, NADP+ and benzaldehyde, read-out: Biochemical IC50 ALDH3A1.

As usually defined, the pIC50 is the IC50 on a negative log10 scale, so that one unit is a factor of ten. Take `CC(C)=CCCC(C)=CC=O` (mixture of isomers) [Citral]: at Human ALDH2 (setting [1]), the pIC50 was 5.37.

As for `COc1ccc(C(=O)CCN(C)C)cc1F` [Aldi-2], the pIC50 is 6.92 at Human ALDH1A2 (setting [2]), 7.00 on Human ALDH2 (setting [1]), 7.40 on Human ALDH3A1 (setting [3]) and 5.60 in the assay on ALDH1A1.

As for `CC(C)(C)c1ccc(S(=O)(=O)/C=C/C#N)cc1` [Bay-11-7085], the negative-log IC50 (pIC50) is 6.42 on Human ALDH1A2 (setting [2]), 7.30 at Human ALDH2 (setting [1]), 6.27 on Human ALDH3A1 (setting [3]) and 7.13 with ALDH1A1.

As to `Cc1nc2ccccc2n1S(=O)(=O)c1ccc(F)cc1` [CB7], the pIC50 was 4.82 at Human ALDH1A2 (setting [2]) and 4.72 on Human ALDH2 (setting [1]).

For the molecule `CCOc1ccc(NCC(=O)Nc2ccc(Cl)cc2C)cc1` [CID 725345], the negative-log IC50 (pIC50) on Human ALDH1A2 (setting [2]) is 6.47; on Human ALDH2 (setting [1]), 5.67; on Human ALDH3A1 (setting [3]) it was 5.27; in the assay on ALDH1A1, 5.46.

`COc1cccc2cc(C(=O)CC3(O)C(=O)N(Cc4ccccc4)c4ccccc43)c(=O)oc12` (stereo not drawn) [CID 2929292]: the pIC50 at Human ALDH1A2 (setting [2]) was 5.52; at Human ALDH2 (setting [1]), 5.02; at Human ALDH3A1 (setting [3]), 4.67; in the assay with ALDH1A1 it was 7.05.

In the case of `CCN(CC)c1ccc(C=O)cc1` [DEAB, 4-N,N-diethylaminobenzaldehyde], the values for the pIC50 at Human ALDH1A2 (setting [2]) and on Human ALDH3A1 (setting [3]) were 5.47 and 5.22, respectively.

For `O=c1c(-c2ccc(O)cc2)coc2cc(O[C@@H]3O[C@H](CO)[C@@H](O)[C@H](O)[C@H]3O)ccc12` [Daidzin], at Human ALDH1A2, the negative logarithm of the IC50 (pIC50) was 4.67.

As for `CCN(CC)C(=S)SSC(=S)N(CC)CC` [Disulfiram], the negative logarithm of the IC50 (pIC50) on Human ALDH1A2 (setting [2]) is 6.85; at Human ALDH3A1 (setting [3]), 5.72; in the assay on ALDH1A1, 6.82.

As for `Cc1cc2c(C(C)C)c(O)c(O)c(C=O)c2c(O)c1-c1c(C)cc2c(C(C)C)c(O)c(O)c(C=O)c2c1O` [Gossypol], the negative logarithm of the IC50 (pIC50) at Human ALDH1A2 is 5.27; against Human ALDH2, 4.62; against Human ALDH3A1 it was 4.57; with ALDH1A1, 4.12.

Regarding `Nc1ccccc1C(=O)CC(N)C(=O)O` (stereo not drawn) [Kynurenine], the negative logarithm of the IC50 (pIC50) on Human ALDH1A2 (setting [2]) is 4.62.

As to `C#CCN(C)Cc1ccccc1` [Pargyline], the pIC50 on Human ALDH1A2 (setting [2]) is 4.62.

With `CC(C)N(C(=O)CCl)c1ccccc1` [Propachlor], the pIC50 was 6.49 at Human ALDH1A2 (hits of dual cell-based screen (Table 2), read-out: Biochemical IC50 ALDH1A2); 4.90 on Human ALDH2 (hits of dual cell-based screen (Table 2), read-out: Biochemical IC50 ALDH2); 4.30 on Human ALDH3A1 (hits of dual cell-based screen (Table 2), read-out: Biochemical IC50 ALDH3A1).

Consider `O=C1Nc2ccccc2C1=O` [indoline-2,3-dione], for which the negative logarithm of the IC50 (pIC50) was 6.17 on Human ALDH1A2 (setting [2]), 4.67 at Human ALDH2 (setting [1]), 5.62 at Human ALDH3A1 (setting [3]) and 7.70 with ALDH1A1.

Consider CVT-10216, for which the pIC50 is 6.47 at Human ALDH1A2 (setting [2]), 5.92 at Human ALDH2 (setting [1]), 4.77 on Human ALDH3A1 (setting [3]) and 5.89 in the assay with ALDH1A1.
